Results published in publication PMC7765321, “Novel Isoniazid-Carborane Hybrids Active In Vitro against Mycobacterium tuberculosis” (Pharmaceuticals, 2020).
In brackets after ≈: the same amount, converted by molar mass.

Assays:
Mtb H37Rv strain = test: microbe, parasite or virus in culture; assay type: cell-based; conditions: for MIC50: concentration exhibiting 50% inhibition of mycobacterial growth; for MIC50 / MIC99: wild-type Mtb H37Rv, 96 h; for MIC99: concentration exhibiting 99% inhibition of mycobacterial growth
in vitro = conditions: PAMPA, pH 7.4
[1] = Determination of the CC50 value (MTT assay); conditions: human, HaCaT cells (immortalized keratinocytes)
[2] = Partition (P) and distribution (D) coefficient, shake-flask octan-1-ol/water or PBS
Mtb = system: Mtb; design: method as in PMID 28390957; conditions: against Mtb; cited from earlier work
HaCaT cells [3] = system: HaCaT cells
[4] = for permeation compared to INH (4): PAMPA; for PAMPA log Pe: PBS pH 7.4, 18 h, RT, Pe in cm/s
HaCaT cells [5] = system: HaCaT cells; remark: listed apart in the source
HaCaT cells [6] = conditions: 24 h at MIC50 and MIC99 values for the Mtb strain
[7] = octan-1-ol/water, shake-flask, RT

| Compound | CC50 (HaCaT cells [3]) [µM] | permeation compared to INH (4) [4] | PAMPA log Pe [4] | log P [2, 7] | MIC50 (Mtb H37Rv strain) [µM] | MIC99 (Mtb H37Rv strain) [µM] | other results |
| --- | --- | --- | --- | --- | --- | --- | --- |
| 1,12-dicarba-closo-dodecaborane-1-carboxylic acid hydrazide [Compound 3] | – | – | – | – | – | – | growth inhibition of Mtb (Mtb H37Rv strain; at 75 µg/mL (0.37 mM)): not considerably inhibited |
| NNC(=O)c1ccncc1 [4 (INH), pyridine-4-carbohydrazide, reference compound] | – | – | – | – | – | – | Papp at 18 h (in vitro): 0.617 ×10⁻⁶ cm/s; CC50 [1]: 725.8 ± 2.36 µM; logP at 0.5 h ([2]; octan-1-ol/water): -1 ± 0.09; MIC50 (Mtb H37Rv strain; Mycobacterium tuberculosis): 0.073 µM (≈ 0.01 µg/mL); MIC99 (Mtb H37Rv strain; Mycobacterium tuberculosis): 0.36 µM (≈ 0.0494 µg/mL); MIC (Mtb): 0.20 µg/mL (≈ 1.46 µM) |
| N′-((1,2-dicarba-closo-dodecaboran-1-yl)ethyl)isonicotinohydrazide [Compound 23] | 86.5 ± 4.59 | two orders of magnitude higher | −4.16 ± 0.05 | 0.64 ± 0.09 | 1.60 | 4.90 | – |
| N′-((1,2-dicarba-closo-dodecaboran-1-yl)ethylidene)isonicotinohydrazide [Compound 20] | 81.5 ± 7.23 | one order of magnitude higher | −5.05 ± 0.09 | 1.26 ± 0.22 | 0.082 | 1.60 | – |
| N′-((1,2-dicarba-closo-dodecaboran-1-yl)propanoyl)isonicotinohydrazide [Compound 8] | 86.6 ± 3.63 | two orders of magnitude higher | −4.98 ± 0.12 | 0.67 ± 0.07 | 44.70 | 100 | viable cells (MTT) (HaCaT cells [5]; 24 h at concentration consistent with MIC99 for wild-type Mtb): 50%; apoptotic/necrotic cells (HaCaT cells [6]): 16.45% |
| N′-((1,7-dicarba-closo-dodecaboran-1-yl)ethyl)isonicotinohydrazide [Compound 24] | 105 ± 6.13 | two orders of magnitude higher | −4.85 ± 0.06 | 0.66 ± 0.08 | 0.81 | 3.25 | – |
| N′-((1,7-dicarba-closo-dodecaboran-1-yl)ethylidene)isonicotinohydrazide [Compound 21] | 78.23 ± 0.71 | two orders of magnitude higher | −4.40 ± 0.10 | 1.66 ± 0.18 | 0.16 | 0.82 | – |
| N′-((1,7-dicarba-closo-dodecaboran-1-yl)methylidene)isonicotinohydrazide [Compound 14] | 131 ± 3.46 | two orders of magnitude higher | −4.06 ± 0.09 | 2.03 ± 0.09 | 0.86 | 3.40 | – |
| N′-((1,7-dicarba-closo-dodecaboran-1-yl)propanoyl)isonicotinohydrazide [Compound 9] | 290.6 ± 1.45 | one order of magnitude higher | −5.09 ± 0.07 | 1.11 ± 0.11 | 22.40 | 74.50 | cytotoxicity / cell viability (MTT) (HaCaT cells [5]; 24 h at MIC50 and MIC99 values for the ΔkatG strain): did not cause severe cytotoxicity |
| N′-((1,12-dicarba-closo-dodecaboran-1-yl)ethyl)isonicotinohydrazide [Compound 25] | – | two orders of magnitude higher | −4.37 ± 0.04 | 1.15 ± 0.14 | 0.32 | 6.50 | – |
| N′-((1,12-dicarba-closo-dodecaboran-1-yl)ethylidene)isonicotinohydrazide [Compound 22] | 80.2 ± 3.81 | two orders of magnitude higher | −4.13 ± 0.07 | 1.30 ± 0.07 | 0.16 | 1.60 | – |
| N′-((1,12-dicarba-closo-dodecaboran-1-yl)methylidene)isonicotinohydrazide [Compound 15] | 305 ± 6.11 | three orders of magnitude higher | −3.90 ± 0.17 | 2.28 ± 0.20 | 10.30 | 17.20 | – |
| N′-((1,12-dicarba-closo-dodecaboran-1-yl)propanoyl)isonicotinohydrazide [Compound 10] | 161 ± 3.89 | two orders of magnitude higher | −4.65 ± 0.09 | 0.99 ± 0.07 | 29.80 | 74.50 | – |
| N′-((7,8-dicarba-nido-undecaboranyl)methylidene)isonicotinohydrazide [Compound 16] | 249.4 ± 0.56 | one order of magnitude higher | −5.05 ± 0.30 | – | 0.16 | 0.33 | log D7.4 ([2]; octan-1-ol/PBS, shake-flask, RT): 0.67 ± 0.04 |
